Data published in patent US20230233674A1 (priority 2022, published 2023).

Key:
[1] = cited from earlier work
[2] = system: Influenza A/California/04/2009 (H1N1); parameters: species or system mice; conditions: mouse, in vivo

## 2′-3″cyclic guanosine monophosphate adenosine monophosphate [cGAMP]
[1]
  in vivo half-life: ~35 min

## CCOC(=O)C1=C[C@@H](OC(CC)CC)[C@H](NC(C)=O)[C@@H](N)C1 [Oseltamivir]
[2]
  mean peak weight loss: −32%
